Assay results taken from patent US5504105A, “Pharmaceutical compositions containing ipriflavone, process for the preparation thereof and relative therapeutic use” (priority 1990, dated 1996).

How the values were obtained:
[1] = In-vivo bioavailability test: urinary excretion, capsules vs tablets, 8 healthy adult volunteers; design: species or system healthy adult volunteers (human); conditions: first study
Experimental: Concomitant drug treatment was avoided.
Urine was collected over the 24 hour period before treatment and on the tenth and eleventh days over the periods 0-24 hours and 24-48 hours after the assumption of the last dose. A homogenous sample (10 ml approx.) was prepared from the total urine excreted on the tenth and eleventh days; this sample was then stored at -20° C. until analised by HPLC.
The pharmacokinetic data were compared with those obtained administering an equivalent dose of ipriflavone in the standard formulation of 200 mg tablets three times daily (total dose 600 mg) according to an analogous study protocol.

[2] = human, in vivo
Experimental: (§1) In this comparative study all the conditions that could influence in some measure the bioavailability behaviour such as meals, drug administration or samples collection were strictly standardized.
(§2) The study was carried out in twelve young healthy volunteers in good health.
(§3) All the subjects were on a standard diet for all the period of the study.
(§4) For each treatment, after an overnight fast, each subject received at 8:00 a.m. on Day 1 the first oral dosing. From Day 1 to Day 10 the daily doses were administered during the meals. The two different treatments (A and B) were the following:
(§5) Treatment A: one 200 mg Ipriflavone Tablet 3 times daily at 8:00 a.m. , 1:00 p.m. and 8:00 p.m.;
(§6) Treatment B: one 300 mg Ipriflavone Scherer capsule two times daily at 8:00 a.m. and 8:00 p.m.

[3] = Further comparative bioavailability study: urinary excretion, treatments A and B, twelve healthy volunteers; assay type: in vivo, young healthy volunteers (human); conditions: each treatment, second study
Experimental: as §1, §2, §3, §4, §5, §6

[4] = in vivo; cited from earlier work
[5] = cited from earlier work

CC(C)Oc1ccc2c(=O)c(-c3ccccc3)coc2c1 [Ipriflavone]
unchanged ipriflavone in urine [1]: no detectable levels | mean increment in bioavailability [2]: 35% | plasma levels / metabolization in man [2]: could not be quantified in several subjects | unchanged ipriflavone in urine [3]: no unchanged ipriflavone levels were found | effectiveness in osteoporosis [4]: effective in preventing and treating post-menopausal and senile osteoporosis | half-life ([5]; human, in vivo, po): 9.8 h | peak plasma concentration of the unchanged drug ([5]; human, in vivo, po): 170 ng/mL | time to peak plasma concentration after administration ([5]; human, in vivo, po): 1.3 h | absorption and metabolism in man ([5]; oral, man): absorbed rapidly and, furtherly, extensively metabolised equally rapidly
